PubChem BioAssay (NCI)
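Step 1: Grow cells in 96-well plates. Step 2: Expose to compound for 48 hours at 5 concentrations. Step 3: Interpolate endpoints linearly; if unreached, use highest concentration. At the GI50, growth is halved. The concentration for full growth arrest is given as TGI.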

How the values were obtained:
Assay in all cases: inhibition of tumour cell growth, NCI panel, 48 h
DU-145 prostate = test system: DU-145 prostate
SR leukemia = test system: SR leukemia
MDA-MB-435 = test system: MDA-MB-435
CCRF-CEM leukemia = test system: CCRF-CEM leukemia
T-47D breast = test system: T-47D breast
A549 NSCLC = test system: A549 NSCLC
OVCAR-4 ovarian = test system: OVCAR-4 ovarian
NCI-H522 lung = test system: NCI-H522 lung
SNB-19 CNS = test system: SNB-19 CNS
KM12 colon = test system: KM12 colon
BT-549 breast = test system: BT-549 breast
TK-10 renal = test system: TK-10 renal
SF-539 CNS = test system: SF-539 CNS
HOP-62 NSCLC = test system: HOP-62 NSCLC
UO-31 renal = test system: UO-31 renal
MALME-3M melanoma = test system: MALME-3M melanoma
UACC-62 melanoma = test system: UACC-62 melanoma
SF-295 CNS = test system: SF-295 CNS
UACC-257 melanoma = test system: UACC-257 melanoma
SK-OV-3 ovarian = test system: SK-OV-3 ovarian
MOLT-4 leukemia = test system: MOLT-4 leukemia
SF-268 CNS = test system: SF-268 CNS
SNB-75 CNS = test system: SNB-75 CNS
OVCAR-5 ovarian = test system: OVCAR-5 ovarian
SK-MEL-28 melanoma = test system: SK-MEL-28 melanoma
NCI-H23 lung = test system: NCI-H23 lung
HCT-15 colon = test system: HCT-15 colon
HL-60(TB) leukemia = test system: HL-60(TB) leukemia
CAKI-1 renal = test system: CAKI-1 renal
A498 renal = test system: A498 renal
HT29 colon = test system: HT29 colon
PC-3 prostate = test system: PC-3 prostate
786-0 renal = test system: 786-0 renal
SW-620 colon = test system: SW-620 colon
IGROV1 ovarian = test system: IGROV1 ovarian
NCI-H226 lung = test system: NCI-H226 lung
COLO 205 colon = test system: COLO 205 colon
SN12C renal = test system: SN12C renal
OVCAR-3 ovarian = test system: OVCAR-3 ovarian
NCI-H460 lung = test system: NCI-H460 lung
NCI/ADR-RES ovarian = test system: NCI/ADR-RES ovarian
OVCAR-8 ovarian = test system: OVCAR-8 ovarian
ACHN renal = test system: ACHN renal
MDA-MB-231 breast = test system: MDA-MB-231 breast
HS 578T breast = test system: HS 578T breast
SK-MEL-5 melanoma = test system: SK-MEL-5 melanoma
RXF 393 renal = test system: RXF 393 renal
HCC-2998 colon = test system: HCC-2998 colon
M14 melanoma = test system: M14 melanoma
RPMI-8226 leukemia = test system: RPMI-8226 leukemia
U251 CNS = test system: U251 CNS
MCF7 breast = test system: MCF7 breast

## O=C(/C=C/c1ccc(Cl)cc1)/C=C/c1cc2ccccc2[nH]c1=O
DU-145 prostate
  GI50: 3.52 µM
  TGI: 11.7 µM
SR leukemia
  GI50: 2.42 µM
  TGI: 8.19 µM
MDA-MB-435
  GI50: 2.34 µM
  TGI: 5.63 µM
CCRF-CEM leukemia
  GI50: 3.09 µM
  TGI: 9.74 µM
T-47D breast
  GI50: 3.46 µM
  TGI: 22.7 µM
A549 NSCLC
  GI50: 3.16 µM
  TGI: 48.9 µM
OVCAR-4 ovarian
  GI50: 5.06 µM
  TGI: 74.3 µM
NCI-H522 lung
  GI50: 1.91 µM
  TGI: 5.4 µM
SNB-19 CNS
  GI50: 11.3 µM
  TGI: 24.7 µM
KM12 colon
  GI50: 3.11 µM
  TGI: 10.3 µM
BT-549 breast
  GI50: 3.29 µM
  TGI: 11.7 µM
TK-10 renal
  GI50: 12.3 µM
  TGI: 31.8 µM
SF-539 CNS
  GI50: 2.88 µM
  TGI: 9.37 µM
HOP-62 NSCLC
  GI50: 8.21 µM
  TGI: 26 µM
UO-31 renal
  GI50: 4.28 µM
  TGI: 20 µM
MALME-3M melanoma
  GI50: 7.63 µM
  TGI: 38.4 µM
UACC-62 melanoma
  GI50: 2.8 µM
  TGI: 10.5 µM
SF-295 CNS
  GI50: 3.48 µM
  TGI: 13.2 µM
UACC-257 melanoma
  GI50: 5.2 µM
  TGI: 19.6 µM
SK-OV-3 ovarian
  GI50: 12.2 µM
  TGI: 32.7 µM
MOLT-4 leukemia
  GI50: 3.82 µM
  TGI: 13.8 µM
SF-268 CNS
  GI50: 3.61 µM
  TGI: 16 µM
SNB-75 CNS
  GI50: 5.79 µM
  TGI: 24.7 µM
OVCAR-5 ovarian
  GI50: 4.65 µM
  TGI: 19.6 µM
SK-MEL-28 melanoma
  GI50: 10 µM
  TGI: 26.2 µM
NCI-H23 lung
  GI50: 4.76 µM
  TGI: 23.5 µM
HCT-15 colon
  GI50: 2.85 µM
  TGI: 14.6 µM
HL-60(TB) leukemia
  GI50: 2.83 µM
  TGI: 8.39 µM
CAKI-1 renal
  GI50: 4.38 µM
  TGI: 21.8 µM
A498 renal
  GI50: 5.87 µM
  TGI: 18.8 µM
HT29 colon
  GI50: 2.5 µM
  TGI: 6.33 µM
PC-3 prostate
  GI50: 2.91 µM
  TGI: 13.7 µM
786-0 renal
  GI50: 2.02 µM
  TGI: 4.16 µM
SW-620 colon
  GI50: 2.31 µM
  TGI: 5.82 µM
IGROV1 ovarian
  GI50: 2.34 µM
  TGI: 5.5 µM
NCI-H226 lung
  GI50: 2.59 µM
  TGI: 11.4 µM
COLO 205 colon
  GI50: 3.65 µM
  TGI: 11.7 µM
SN12C renal
  GI50: 3.67 µM
  TGI: 17.4 µM
OVCAR-3 ovarian
  GI50: 2.07 µM
  TGI: 4.5 µM
NCI-H460 lung
  GI50: 8.52 µM
  TGI: 28.9 µM
NCI/ADR-RES ovarian
  GI50: 16.8 µM
  TGI: > 100 µM
OVCAR-8 ovarian
  GI50: 3.03 µM
  TGI: 12.9 µM
ACHN renal
  GI50: 4.96 µM
  TGI: 20.3 µM
MDA-MB-231 breast
  GI50: 2.64 µM
  TGI: 7.82 µM
HS 578T breast
  GI50: 4.14 µM
  TGI: 66.6 µM
SK-MEL-5 melanoma
  GI50: 10.1 µM
  TGI: 25.2 µM
RXF 393 renal
  GI50: 2.81 µM
  TGI: 8.88 µM
HCC-2998 colon
  GI50: 2.02 µM
  TGI: 3.62 µM
M14 melanoma
  GI50: 3.11 µM
  TGI: 13.4 µM
RPMI-8226 leukemia
  GI50: 1.29 µM
  TGI: 4.65 µM
U251 CNS
  GI50: 1.81 µM
  TGI: 3.68 µM
MCF7 breast
  GI50: 0.923 µM
  TGI: 8.45 µM
